Laboratory results reported in patent publication US5641780A, “Pyrrolo-indole derivatives” (priority 1994, dated 1997).
Like-named read-outs stand apart in the source and are kept apart here.

Assays:
Sarcoma 180 tumor = assay: Therapeutic Effect on Sarcoma 180 Tumor; format: in vivo, male ddY-strain mice; conditions: determined seven days after implantation
Experimental: Five male ddY-strain mice each weighing 18-20 g were used for each group as test animals, and 5×10^5 Sarcoma 180 tumor cells were implantedat the axilla subcutaneously. One day after the implantation, 0.2 ml of a physiological saline containing Compound (I) at the concentration shown in Table 3 was intravenously administered to each mouse. T/C [T: average tumor volume (mm^3) of the group treated with the test compound, C: average tumor volume (mm^3) of the control group (to which 0.2 ml of a physiological saline was intravenously administered)] was determined seven days after the implantation.

HeLaS3 cells = assay: Growth Inhibitory Effect Against HeLaS3 cells; format: cell-based
Experimental: HeLaS3 cells were suspended in MEM medium containing 10% fetal calf serum and 2 mM glutamine to a concentration of 2.67×10^4 cells/ml. The cell suspension thus prepared was put into wells of a 24-well culture plate in an amount of 0.75 ml per well. After the cells were incubated in a CO2 incubator overnight at 37° C., Compound (I) which had been appropriately diluted with a culture medium was added to each well in an amount of 0.25 ml.
The cells were further incubated in the CO2 incubator for 72 hours, and the culture supernatant was removed. Then, the cells were dispersed in a solution of trypsin and EDTA, and recovered. The number of the cells was counted using a cell counter. The concentration of Compound (I) at which the growth of the cells is inhibited by 50% was calculated by comparing the number of untreated cells with the number of the cells treated with Compound (I) at known concentrations, and the value was defined as IC50.

ddY-strain male mice = assay: Acute toxicity (minimum lethal dose); format: in vivo; conditions: intravenous, mortality at 14 days after administration
Experimental: Compound (I) was intravenously administered to ddY-strain male mice each weighing 20±1 g. MLD (minimum lethal dose) was determined by observing the mortality at 14 days after administration.

melanoma B-16 = conditions: cited from earlier work
various bacteria = conditions: cited from earlier work
[1] = Mus musculus, Sarcoma-180, 168 h, dose 2.0 mg/kg, intravenous, one day after implantation, read-out: T/C (average tumor volume treated / control)
[2] = Homo sapiens, HeLa S3, 72 hours, 37° C., cell counter, read-out: IC50, growth inhibition of HeLaS3 cells
[3] = Mus musculus, Sarcoma-180, iv, 168 h, read-out: T/C (average tumor volume treated / control), dose 2.0 mg/kg, intravenous, one day after implantation
[4] = Homo sapiens, HeLa S3, 72 h, read-out: IC50, growth inhibition of HeLaS3 cells, 72 hours, 37° C., cell counter

Row | SMILES | MLD (minimum lethal dose) (ddY-strain male mice) | response vs control in vivo at 2 mg/kg (Sarcoma 180 tumor; [3]) | IC50 (HeLaS3 cells; [4]) | further results
1 | COC(=O)c1c(C)[nH]c2c(OC(=O)c3cccc(N(C)C)c3)cc3c(c12)C(CBr)CN3C(=O)/C=C/c1ccc(OC)cc1 (centres unmarked) [Compound 24] |  |  |  | response vs control in vivo at 2 mg/kg (Sarcoma 180 tumor; [1]): 31%; IC50 (HeLaS3 cells; [2]): 0.43 nM
2 | CCN(CC)c1ccc(C(=O)Oc2cc3c(c4c(C(=O)OC)c(C)[nH]c24)C(CBr)CN3C(=O)/C=C/c2ccc(OC)cc2)cc1 (centres unmarked) [Compound 25] | 2.0 mg/kg | 14% | 13 nM | 
3 | COC(=O)c1c(C)[nH]c2c(OC(=O)c3ccc(-n4cccc4)cc3)cc3c(c12)C(CBr)CN3C(=O)/C=C/c1ccc(OC)cc1 (centres unmarked) [Compound 26] | 2.0 mg/kg | 15% | 1.7 nM | 
4 | COC(=O)c1c(C)[nH]c2c(OC(=O)c3ccc(CN4CCN(C)CC4)cc3)cc3c(c12)C(CBr)CN3C(=O)/C=C/c1ccc(OC)cc1 (centres unmarked) [Compound 28] | 2.0 mg/kg | 21% | 0.83 nM | 
5 | COC(=O)c1c(C)[nH]c2c(OC(=O)NN(C)C)cc3c(c12)C(CBr)CN3C(=O)/C=C/c1ccc(OC)cc1 (centres unmarked) [Compound 29] | 2.0 mg/kg |  |  | response vs control in vivo at 2 mg/kg (Sarcoma 180 tumor; [1]): 18%; IC50 (HeLaS3 cells; [2]): 0.43 nM
6 | COC(=O)c1c(C)[nH]c2c(OC(=O)N(C)N)cc3c(c12)C(CBr)CN3C(=O)/C=C/c1ccc(OC)cc1 (centres unmarked) [Compound 30] | 2.0 mg/kg | 22% | 0.94 nM | 
7 | COC(=O)c1c(C)[nH]c2c(OC(=O)NN3CCC(N4CCCCC4)CC3)cc3c(c12)C(CBr)CN3C(=O)/C=C/c1ccc(OC)cc1 (centres unmarked) [Compound 32] | > 8.0 mg/kg |  | 0.8 nM | response vs control in vivo at 8 mg/kg (Sarcoma 180 tumor; Mus musculus, Sarcoma-180, iv, 168 h, read-out: T/C (average tumor volume treated / control), dose 8.0 mg/kg, intravenous, one day after implantation): 10%
8 | COC(=O)c1c(C)[nH]c2c(OC(=O)CSCC(=O)O)cc3c(c12)C(CBr)CN3C(=O)/C=C/c1ccc(OC)cc1 (centres unmarked) [Compound 33] | 2.0 mg/kg | 17% | 0.33 nM | 
9 | COC(=O)c1c(C)[nH]c2c(OC(=O)c3ccc(CNC(=O)OC(C)(C)C)cc3)cc3c(c12)C(CBr)CN3C(=O)/C=C/c1ccc(OC)cc1 (centres unmarked) [Compound 34] |  |  |  | response vs control in vivo at 2 mg/kg (Sarcoma 180 tumor; [1]): 28%; IC50 (HeLaS3 cells; [2]): 0.52 nM
10 | COC(=O)c1c(C)[nH]c2c(OC(=O)c3ccc(CN)cc3)cc3c(c12)C(CBr)CN3C(=O)/C=C/c1ccc(OC)cc1 (centres unmarked) [Compound 36] |  |  |  | response vs control in vivo at 4 mg/kg (Sarcoma 180 tumor; Mus musculus, Sarcoma-180, 168 h, dose 4.0 mg/kg, intravenous, one day after implantation, read-out: T/C (average tumor volume treated / control)): 35%; IC50 (HeLaS3 cells; [2]): 1 nM
11 | COC(=O)c1c(C)[nH]c2c(OC(=O)NN3CCN(C)CC3)cc3c(c12)C(CBr)CN3C(=O)/C=C/c1ccc(OC)cc1 (centres unmarked) [Compound 37] | > 8.0 mg/kg |  |  | T/C (average tumor volume treated / control) (Sarcoma 180 tumor; dose 8.0 mg/kg, intravenous, one day after implantation, 8 mg/kg): 0.27; IC50 (HeLaS3 cells; read-out: IC50, growth inhibition of HeLaS3 cells, 72 hours, 37° C., cell counter): 0.91 nM
12 | CNN(C)C(=O)Oc1cc2c(c3c(C(=O)OC)c(C)[nH]c13)C(CBr)CN2C(=O)/C=C/c1ccc(OC)cc1 (centres unmarked) [Compound 38] | 4.0 mg/kg |  | 1.5 nM | response vs control in vivo at 4 mg/kg (Sarcoma 180 tumor; Mus musculus, Sarcoma-180, iv, 168 h, read-out: T/C (average tumor volume treated / control), dose 4.0 mg/kg, intravenous, one day after implantation): 14%
13 | COC(=O)c1c(C)[nH]c2c(OC(=O)CN3CCN(C)CC3)cc3c(c12)C(CBr)CN3C(=O)/C=C/c1ccc(OC)cc1 (centres unmarked) [Compound 39] | 4.0 mg/kg |  | 0.36 nM | 
14 | COC(=O)c1c(C)[nH]c2c(OC(=O)CN3CCC(N4CCCCC4)CC3)cc3c(c12)C(CBr)CN3C(=O)/C=C/c1ccc(OC)cc1 (centres unmarked) [Compound 40] | 2.0 mg/kg |  | 0.29 nM | 
15 | COC(=O)c1cc2c([nH]1)C(=O)C=C1N(C(=O)c3cc4cc(OC)c(OC)c(OC)c4[nH]3)CC3CC123 (centres unmarked) [DC113] |  |  |  | antitumor activity against melanoma B-16 (melanoma B-16): anti-tumor activity against melanoma B-16; antibacterial activity against various bacteria (various bacteria): antibacterial activity against various bacteria
16 | COC(=O)[C@]1(C)NC2=C(C1=O)[C@@]13C[C@@H]1CN(C(=O)c1cc4cc(OC)c(OC)c(OC)c4[nH]1)C3=CC2=O [DC-88A] |  |  |  | antitumor activity against melanoma B-16 (melanoma B-16): anti-tumor activity against melanoma B-16; antibacterial activity against various bacteria (various bacteria): antibacterial activity against various bacteria
